Earlier results, collected in patent publication US20050277132A1, “Nematode GS-like sequences” (Divergence Inc., a Delaware corporation, priority 2001, published 2005).

Columns and labels:
[1] = test system: bacterial glutamine synthetase enzymes; details: in vitro and in cell culture
[2] = test system: pathogenic bacteria that are known to secrete glutamine synthetase; details: bacteria that secrete glutamine synthetase into the extracellular milieu
[3] = test system: nonpathogenic bacteria that do not export glutamine synthetase
[4] = test system: everted hamster jejunal and ileal segments
[5] = test system: isolated intestinal epithelial cells

CS(=N)(=O)CC[C@H](N)C(=O)O (stereo partly drawn) [L-methionine-S-sulfoximine]
times more active against certain bacterial glutamine synthetase enzymes than representative mammalian glutamine synthetases [1]: 100 times | growth of pathogenic bacteria [2]: selectively block growth | effect against nonpathogenic bacteria [3]: no effect

CCCCCC[C@@H](O)C/C=C\CCCCCCCC(=O)O [Ricinoleic acid]
effect on water and electrolyte absorption [4]: inhibitory effect | cytotoxicity [5]: cytotoxic

CCCCCC[C@@H](O)C/C=C\CCCCCCCC(=O)OC [methyl ester of ricinoleic acid]
effect on water and electrolyte absorption [4]: ineffective
